One data set concerns the target KRAS-G12V/RAF1 (Homo sapiens (Human), UniProt P01116, G12V). Briefly: KRAS/RAF1 binding inhibition assay (AlphaScreen). The essentials:
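IC50 comes from variable-slope nonlinear fits of % inhibition (relative to DMSO) against inhibitor concentration. The AlphaScreen signal tracks the interaction of GppNHp-bound KRAS G12V with the RAF1 RBD after 60 min at 4° C with compound in 2% DMSO final.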
A general note: In Alpha technology, singlet oxygen from a donor bead excites a nearby acceptor bead.

The next data set has as its target KRAS G12V (Homo sapiens (Human), UniProt P01116, G12V). The experiment in a line: KRAS G12V degradation in SW620 cells (Western blot, DC50). It is filed as cell-based. As to conditions: 24 hours. The procedure, abridged: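 KRAS levels were quantified by fluorescent Western blot as percent of the DMSO control after 24 h of compound exposure at 37° C in homozygous KRAS G12V SW620 cells. A four-parameter variable-slope fit of the dose-response gave the half-maximal degradation concentration.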

In a further data set the test system is SW620 cells. The experiment in a line: 3D cell growth inhibition of SW620 cells carrying endogenous KRAS G12V mutation (CellTiter-Glo 3D, GI50). It is filed as cell-based. As to conditions: Homo sapiens, SW-620, 144 h; SW620 cells, 6 days; read-out: SW620 3D cell growth GI50. The essentials:
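[…], compound exposure lasted 6 days at 37° C, added the day after plating from DMSO stocks over a concentration range. Cells: SW620, KRAS G12V, 3D culture.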
(In general: ATP-based viability assays read luminescence as a measure of living cells.)

Data set [1] in a line: Pharmacokinetics following single intravenous and oral gavage dosing (AUC0-24h). It is filed as in vivo. Conditions: mouse, plasma; single oral dose 30 mg/Kg, male CD-1 mice. The procedure:
Compounds disclosed herein were studied for animal tolerability and pharmacokinetics following single intravenous (iv) and oral gavage (po) dosing to male CD-1 mice. For each compound in each dosing route, 3 mice were used with iv dosing volume of 5 mL/kg and po dosing volume of 10 mL/kg. The compounds were formulated in 10% DMSO, 30% PEG400, 60% aqueous solution containing 20% 2-hydroxypropyl-β-cyclodextrin. Blood sampling time points for iv dosing were 0.083, 0.25, 0.5, 1, 2, 4, 8 and 24 h. The sampling time points for po dosing were 0.25, 0.5, 1, 2, 4, 6, 8 and 24 h. Mice activities were monitored and recorded immediately following the dosing. The prepared plasma samples were analyzed using LC/MS/MS on AB Sciex Triple Quad 5500+ system. The PK parameters were determined by non-compartmental analysis using WinNonlin (Version 8.0).

Structures are written as SMILES. A value given as a limit tells only on which side of the number the result lay.

Chain of KRAS G12V (P01116-2 other isoform, or with tags, fused parts or gaps G12V): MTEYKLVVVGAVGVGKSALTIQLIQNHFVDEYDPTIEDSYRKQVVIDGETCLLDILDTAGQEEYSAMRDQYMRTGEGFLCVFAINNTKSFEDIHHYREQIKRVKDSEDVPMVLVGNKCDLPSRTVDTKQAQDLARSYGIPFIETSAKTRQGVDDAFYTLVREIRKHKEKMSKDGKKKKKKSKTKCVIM
Chain of KRAS-G12V/RAF1 (P01116-2 other isoform, or with tags, fused parts or gaps G12V): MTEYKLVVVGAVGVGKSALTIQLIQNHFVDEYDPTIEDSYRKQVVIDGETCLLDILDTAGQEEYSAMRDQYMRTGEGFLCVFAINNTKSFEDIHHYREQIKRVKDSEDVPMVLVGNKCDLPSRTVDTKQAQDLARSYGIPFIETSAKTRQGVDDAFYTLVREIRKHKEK

For orientation: IC50 means the concentration that gives 50% inhibition. A low value points to greater potency in that assay. As usually defined, the DC50 is the midpoint of the concentration-degradation curve. High values mean degradation only at high concentration, low ones degradation at low concentration. The term GI50 denotes the concentration at which growth is held to half of that of the control. By AUC(0-t) is commonly meant exposure summed from dosing to a finite time, without extrapolation to infinity. As to `CCc1c(F)ccc2cc(O)cc(-c3ncc4c(N5CCC[C@@](C)(O)C5)nc(OCC5(CN6CCC(C)(CN7CCC(N8CCN(c9ccc%10c(c9)CN([C@H]9CCC(=O)NC9=O)C%10=O)CC8)CC7)CC6)CC5)nc4c3F)c12` [Compound 213, (S)-3-(5-(4-(1-((1-((1-(((7-(8-ethyl-7-fluoro-3-hydroxynaphthalen-1-yl)-8-fluoro-4-((R)-3-hydroxy-3-methylpiperidin-1-yl)pyrido[4,3-d]pyrimidin-2-yl)oxy)methyl)cyclopropyl)methyl)-4-methylpiperidin-4-yl)methyl)piperidin-4-yl)piperazin-1-yl)-1-oxoisoindolin-2-yl)piperidine-2,6-dione], the IC50 at KRAS-G12V/RAF1 was below 20 nM. Moreover, the DC50 on KRAS G12V is below 1 nM. In addition, the GI50 in the data set on SW620 cells is below 10 nM. Moreover, in data set [1], the AUC(0-t) was 1360 ng·h/mL.
On KRAS-G12V/RAF1, `CCc1c(F)ccc2cc(O)cc(-c3ncc4c(N5CCC[C@@](C)(O)C5)nc(OCC5(CN6CCC(OC7CC8(CCN(c9ccc%10c(c9)CN(C9CCC(=O)NC9=O)C%10=O)CC8)C7)CC6)CC5)nc4c3F)c12` (stereo partly drawn) [Compound 182, 3-[5-[2-[[1-[[1-[[7-(8-ethyl-7-fluoro-3-hydroxy-1-naphthyl)-8-fluoro-4-[(3R)-3-hydroxy-3-methyl-1-piperidyl]pyrido[4,3-d]pyrimidin-2-yl]oxymethyl]cyclopropyl]methyl]-4-piperidyl]oxy]-7-azaspiro[3.5]nonan-7-yl]-1-oxo-isoindolin-2-yl]piperidine-2,6-dione] registered an IC50 of 20 to 200 nM. On KRAS G12V, this compound displayed a DC50 below 1 nM. For the same compound, the GI50 with SW620 cells was below 10 nM. In addition, the AUC(0-t) in data set [1] is 4900 ng·h/mL.
In data set [1], `CCc1c(F)ccc2cc(O)cc(-c3ncc4c(N5CCC[C@@](C)(O)C5)nc(OCC5(CN6CCC(F)(CN7CCN(c8ccc(C9CCC(=O)NC9=O)c(F)c8)CC7)CC6)CC5)nc4c3F)c12` (stereo partly drawn) [Compound 84, 3-(4-(4-((1-((1-(((7-(8-ethyl-7-fluoro-3-hydroxynaphthalen-1-yl)-8-fluoro-4-((R)-3-hydroxy-3-methylpiperidin-1-yl)pyrido[4,3-d]pyrimidin-2-yl)oxy)methyl)cyclopropyl)methyl)-4-fluoropiperidin-4-yl)methyl)piperazin-1-yl)-2-fluorophenyl)piperidine-2,6-dione] displayed an AUC(0-t) of 11900 ng·h/mL.
The compound `CCc1c(F)ccc2cc(O)cc(-c3ncc4c(N5CCC[C@@](C)(O)C5)nc(OCC5(CN6CCC(CN7CCN(c8ccc9c(c8)CN([C@H]8CCC(=O)NC8=O)C9=O)CC7)CC6)CC5)nc4c3F)c12` [Compound 1, (S)-3-(5-(4-((1-((1-(((7-(8-ethyl-7-fluoro-3-hydroxynaphthalen-1-yl)-8-fluoro-4-((R)-3-hydroxy-3-methylpiperidin-1-yl)pyrido[4,3-d]pyrimidin-2-yl)oxy)methyl)cyclopropyl)methyl)piperidin-4-yl)methyl)piperazin-1-yl)-1-oxoisoindolin-2-yl)piperidine-2,6-dione] gave an exposure AUC(0-t) in data set [1] of 220 ng·h/mL.
Compound `CCc1cccc2cc(O)cc(-c3ncc4c(N5CCC[C@@](C)(O)C5)nc(OCC5(CN6CCC(F)(CN7CC8(CCN(c9ccc%10c(c9)CN(C9CCC(=O)NC9=O)C%10=O)CC8)C7)CC6)CC5)nc4c3F)c12` (stereo partly drawn) [Compound 28, 3-(5-(2-((1-((1-(((7-(8-ethyl-3-hydroxynaphthalen-1-yl)-8-fluoro-4-((R)-3-hydroxy-3-methylpiperidin-1-yl)pyrido[4,3-d]pyrimidin-2-yl)oxy)methyl)cyclopropyl)methyl)-4-fluoropiperidin-4-yl)methyl)-2,7-diazaspiro[3.5]nonan-7-yl)-1-oxoisoindolin-2-yl)piperidine-2,6-dione] registered an IC50 at KRAS-G12V/RAF1 of 20 to 200 nM. This compound gave a DC50 at KRAS G12V below 1 nM. For the same compound, the GI50 in the data set on SW620 cells is below 10 nM. In addition, in data set [1], the AUC(0-t) came out at 539 ng·h/mL.
For `CCc1c(F)ccc2cc(O)cc(-c3ncc4c(N5CCC[C@@](C)(O)C5)nc(OCC5(CN6CCC(F)(CN7CCN(c8ccc9c(C%10CCC(=O)NC%10=O)nn(C)c9c8)CC7)CC6)CC5)nc4c3F)c12` (stereo partly drawn) [Compound 66, 3-(6-(4-((1-((1-(((7-(8-ethyl-7-fluoro-3-hydroxynaphthalen-1-yl)-8-fluoro-4-((R)-3-hydroxy-3-methylpiperidin-1-yl)pyrido[4,3-d]pyrimidin-2-yl)oxy)methyl)cyclopropyl)methyl)-4-fluoropiperidin-4-yl)methyl)piperazin-1-yl)-1-methyl-1H-indazol-3-yl)piperidine-2,6-dione], in data set [1], the AUC(0-t) worked out at 7420 ng·h/mL.
`CCc1c(F)ccc2cc(O)cc(-c3ncc4c(N5CCC[C@@](C)(O)C5)nc(OCC5(CN6CCC(F)(CN7CCN(c8cccc9c8n(C)c(=O)n9C8CCC(=O)NC8=O)CC7)CC6)CC5)nc4c3F)c12` (stereo partly drawn) [Compound 65, 3-(4-(4-((1-((1-(((7-(8-ethyl-7-fluoro-3-hydroxynaphthalen-1-yl)-8-fluoro-4-((R)-3-hydroxy-3-methylpiperidin-1-yl)pyrido[4,3-d]pyrimidin-2-yl)oxy)methyl)cyclopropyl)methyl)-4-fluoropiperidin-4-yl)methyl)piperazin-1-yl)-3-methyl-2-oxo-2,3-dihydro-1H-benzo[d]imidazol-1-yl)piperidine-2,6-dione] registered an AUC(0-t) in data set [1] of 10700 ng·h/mL.
With `CCc1c(F)ccc2cc(O)cc(-c3ncc4c(N5CCC[C@@](C)(O)C5)nc(OCC5(CN6CCC7(CC6)CC(F)(CN6CCN(c8cc(F)c(C9CCC(=O)NC9=O)c(F)c8)CC6)C7)CC5)nc4c3F)c12` (stereo partly drawn) [Compound 46, 3-(4-(4-((7-((1-(((7-(8-ethyl-7-fluoro-3-hydroxynaphthalen-1-yl)-8-fluoro-4-((R)-3-hydroxy-3-methylpiperidin-1-yl)pyrido[4,3-d]pyrimidin-2-yl)oxy)methyl)cyclopropyl)methyl)-2-fluoro-7-azaspiro[3.5]nonan-2-yl)methyl)piperazin-1-yl)-2,6-difluorophenyl)piperidine-2,6-dione], the DC50 at KRAS G12V lay within 1 to 10 nM. Further, the 50% growth inhibitory concentration (GI50) with SW620 cells was below 10 nM. The AUC(0-t) in data set [1] came out at 9130 ng·h/mL.
`CCc1c(F)ccc2cc(O)cc(-c3ncc4c(N5CCCC6(CCO6)C5)nc(OCC5(CN6CCC(CN7CCN(c8ccc9c(c8)CN([C@H]8CCC(=O)NC8=O)C9=O)CC7)CC6)CC5)nc4c3F)c12` (stereo partly drawn) [Compound 23, (3S)-3-(5-(4-((1-((1-(((7-(8-ethyl-7-fluoro-3-hydroxynaphthalen-1-yl)-8-fluoro-4-(1-oxa-6-azaspiro[3.5]nonan-6-yl)pyrido[4,3-d]pyrimidin-2-yl)oxy)methyl)cyclopropyl)methyl)piperidin-4-yl)methyl)piperazin-1-yl)-1-oxoisoindolin-2-yl)piperidine-2,6-dione] showed an IC50 on KRAS-G12V/RAF1 of 20 to 200 nM. The 50% growth inhibitory concentration (GI50) with SW620 cells is below 10 nM. Also, the AUC(0-t) in data set [1] stood at 783 ng·h/mL.
Turning to `CCc1c(F)ccc2cc(O)cc(-c3ncc4c(N5CCCC6(CCO6)C5)nc(OCC5(CN6CCC(CN7CCC(N8CCN(c9ccc%10c(c9)CN([C@H]9CCC(=O)NC9=O)C%10=O)CC8)CC7)CC6)CC5)nc4c3F)c12` (stereo partly drawn) [Compound 38, (3S)-3-(5-(4-(1-((1-((1-(((7-(8-ethyl-7-fluoro-3-hydroxynaphthalen-1-yl)-8-fluoro-4-(1-oxa-6-azaspiro[3.5]nonan-6-yl)pyrido[4,3-d]pyrimidin-2-yl)oxy)methyl)cyclopropyl)methyl)piperidin-4-yl)methyl)piperidin-4-yl)piperazin-1-yl)-1-oxoisoindolin-2-yl)piperidine-2,6-dione], the 50% degradation concentration (DC50) at KRAS G12V was in the range of 1 to 10 nM. Moreover, the GI50 with SW620 cells was below 10 nM. In addition, the AUC(0-t) in data set [1] was 170 ng·h/mL.
For the compound `CCc1c(F)ccc2cc(O)cc(-c3ncc4c(N5CCC[C@@](C)(O)C5)nc(OCC5(CN6CC(N7CCN(c8ccc9c(c8)CN([C@H]8CCC(=O)NC8=O)C9=O)CC7)C6)CC5)nc4c3F)c12` [Compound 130, (S)-3-(5-(4-(1-((1-(((7-(8-ethyl-7-fluoro-3-hydroxynaphthalen-1-yl)-8-fluoro-4-((R)-3-hydroxy-3-methylpiperidin-1-yl)pyrido[4,3-d]pyrimidin-2-yl)oxy)methyl)cyclopropyl)methyl)azetidin-3-yl)piperazin-1-yl)-1-oxoisoindolin-2-yl)piperidine-2,6-dione], the IC50 on KRAS-G12V/RAF1 was in the range of 20 to 200 nM. For the same compound, on KRAS G12V, the DC50 was 1 to 10 nM. For the same compound, the GI50 in the data set with SW620 cells is below 10 nM.
Consider `C#Cc1c(F)ccc2cc(N)cc(-c3ncc4c(N5CCC[C@@](C)(O)C5)nc(OCC5(CN6CCC7(CC6)CC(CN6CCN(c8ccc9c(c8)CN([C@H]8CCC(=O)NC8=O)C9=O)CC6)C7)CC5)nc4c3F)c12` [Compound 119, (S)-3-(5-(4-((7-((1-(((7-(3-amino-8-ethynyl-7-fluoronaphthalen-1-yl)-8-fluoro-4-((R)-3-hydroxy-3-methylpiperidin-1-yl)pyrido[4,3-d]pyrimidin-2-yl)oxy)methyl)cyclopropyl)methyl)-7-azaspiro[3.5]nonan-2-yl)methyl)piperazin-1-yl)-1-oxoisoindolin-2-yl)piperidine-2,6-dione], for which the 50% inhibitory concentration (IC50) on KRAS-G12V/RAF1 was above 200 nM. Moreover, the DC50 at KRAS G12V is above 100 nM. In addition, the GI50 in the data set on SW620 cells is above 100 nM.
